Assay results reported in article PMC6768323, “Adverse Maternal, Fetal, and Postnatal Effects of Hexafluoropropylene Oxide Dimer Acid (GenX) from Oral Gestational Exposure in Sprague-Dawley Rats” (Environmental Health Perspectives, 2019).

Experiments:
[1] = test system: pregnant Sprague-Dawley rats; assay: Dose-response analyses (EC5) versus maternal serum HFPO-DA concentration; format: in vivo
Description: Dose–response analyses for the in vitro transactivation assay data and the most sensitive in vivo end points and were conducted using four-parameter logistic regression in GraphPad Prism (constraint to bottom=0% , top=100% ). In vitro luminescence data was normalized to background (vehicle control), log10 transformed, and converted to percentage maximum response based on saturating levels of reference agonist. In vivo data were modeled as a function of log10 -transformed internal dose (i.e., dam serum HFPO-DA concentration from GD18), and response data was normalized to control and presented as a percentage. We estimated effect concentrations equivalent to a 5% deviation from control ( EC5 ). Reduction in maternal serum T3 concentration was modeled by ascribing a concentration of one-half of the detection limit (i.e., 0.1 ng/mL; detection limit of 0.2 ng/mL ) for the dose groups that were below the detection limit.

chimp AR = biological target: T1, chimp AR (Pan troglodytes, UniProt O97775); assay: AR transcriptional activation, CV-1 cells; format: cell-based
T1 construct: expressed in transfected cells; host or cells: CV-1 cells (ATCC CCL-70), adenoviral transduction
T1 sequence (O97775 1-911): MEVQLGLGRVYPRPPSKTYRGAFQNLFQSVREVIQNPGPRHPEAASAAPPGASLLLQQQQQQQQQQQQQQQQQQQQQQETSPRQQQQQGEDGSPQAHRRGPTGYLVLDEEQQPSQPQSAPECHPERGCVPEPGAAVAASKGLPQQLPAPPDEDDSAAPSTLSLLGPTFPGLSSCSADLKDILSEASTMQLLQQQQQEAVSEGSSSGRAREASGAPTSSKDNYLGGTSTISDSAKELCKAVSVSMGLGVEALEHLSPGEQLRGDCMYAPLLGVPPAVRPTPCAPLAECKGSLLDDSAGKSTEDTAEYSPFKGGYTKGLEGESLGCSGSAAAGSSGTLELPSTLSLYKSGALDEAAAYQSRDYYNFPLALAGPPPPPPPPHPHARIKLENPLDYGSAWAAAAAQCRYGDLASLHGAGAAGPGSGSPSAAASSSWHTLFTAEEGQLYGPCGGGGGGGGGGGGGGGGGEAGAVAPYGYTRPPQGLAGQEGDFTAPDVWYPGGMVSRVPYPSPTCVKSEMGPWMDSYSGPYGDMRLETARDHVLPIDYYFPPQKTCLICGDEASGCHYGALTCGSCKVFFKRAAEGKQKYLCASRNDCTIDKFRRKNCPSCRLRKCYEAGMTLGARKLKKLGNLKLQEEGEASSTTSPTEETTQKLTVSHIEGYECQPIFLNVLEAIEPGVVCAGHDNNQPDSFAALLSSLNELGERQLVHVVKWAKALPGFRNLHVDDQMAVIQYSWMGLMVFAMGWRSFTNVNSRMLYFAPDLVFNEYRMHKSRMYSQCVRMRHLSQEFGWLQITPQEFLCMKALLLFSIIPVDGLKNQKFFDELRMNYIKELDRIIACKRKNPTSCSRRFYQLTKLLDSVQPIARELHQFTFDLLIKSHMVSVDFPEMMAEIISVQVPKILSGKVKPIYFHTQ
Description: HFPO-DA was assessed for agonism and antagonism of transcriptional activation for estrogen (ER), androgen (AR), and glucocorticoid receptors (GR). Method details for in vitro transactivation assays for ER ([Wilson et al. 2004a]), AR ([Hartig et al. 2002], [2007]), and GR ([Conley et al. 2017]; [Medlock Kakaley et al. 2018]) have been previously reported. Briefly, for ER activity we utilized the stably transfected T47D-KBluc cell line [publicly available via American Type Culture Collection (ATCC); CRL-2865] according to protocols provided by ATCC with the modification of Dulbecco’s Modified Eagle Media (DMEM) as the cell culture media instead of Roswell Park Memorial Institute (RPMI) media. […] All assays were run in 96-well plates and luminescence was detected using a BMG Fluostar Omega luminometer (BMG Labtech) following 24-h exposure. […] Cellular cytotoxicity across the dosing range was determined for CV-1 cells utilizing the 3-(4,5-dimethylthiazol-2-yl)-2,5-diphenyltetrazolium bromide (MTT) dye ([Mosmann 1983]). HFPO-DA was analyzed using n=2–3 biological replicate assay plates (i.e., unique cell passages) with four technical replicates per treatment per plate. […]

## O=C(O)C(F)(OC(F)(F)C(F)(F)C(F)(F)F)C(F)(F)F (stereo not shown) [HFPO-DA, Hexafluoropropylene oxide dimer acid]
[1]; 5% deviation from control, maternal serum HFPO-DA
  EC5, maternal serum T3: 3.8 µg/mL
[1]; linear equation from Figure 5
  estimated maternal oral dose at T3 EC5: 8.2 mg/kg
[1]; maternal serum HFPO-DA
  EC5, maternal liver Ehhadh expression: 14.1 µg/mL
  EC5, maternal liver weight: 17.6 µg/mL
  EC5, maternal serum T4: 17.8 µg/mL
Chimp AR; 100 pM to 100 μM
  androgen receptor agonism: no androgen or glucocorticoid receptor agonism
Chimp AR; 100 μM, versus 100 pM DHT
  androgen receptor antagonism, reduction in luciferase expression: 42±1%
